From the supplement of paper PMC11208160 come the findings set out here.
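Further: IS621 bridge recombinase in Escherichia coli cells against a fixed T5 target plasmid.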

The series in a line: recombinant UMI read abundance after kanamycin selection (control-corrected) (log10(CPM+1)); higher = more efficient recombination; extreme values may be limits of the assay; sequences stand for … in AGTGCAGAGAAAATCGGCCAGTTTTCTCTGCCTGCAGTCCGCATGCCGTGGGACCCCTTGGGTTCTAACCTGTTGCCTAGATTTATGCAGCGGACTGCCTTTCTCCCAAAGTGATAAACCGG…AGGTTGGTTTCACT; site = the 11-nt donor. Put shortly:
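Each donor and donor-binding-loop pair was tracked by a 12-nt UMI on a plasmid carrying a promoterless kanamycin gene. With a second plasmid supplying a fixed target and T7-inducible IS621 bridge recombinase, the pool was plated in Escherichia coli on IPTG (0.07 mM) plus kanamycin or unselected. Sequencing of recombinant UMIs across the donor–target junction gave counts expressed as log10(CPM+1) after replicate averaging and control-derived scaling.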
In the case of “TCTTATCCATGGACCGGTTTTCCCGGTAATCCGTATTTGGA (site TCTTATCCTTC)”, the “recombinant UMI read abundance (log10)” value stood at 0.0232.

Turning to “TCTTCCCCATGGACCGGTTTTCCCGGTAATCCGTATTTGTA (site TATTCCCCTTA)”, the “recombinant UMI read abundance (log10)” value stood at 0.0172.

On to “TCTTCCCCATGGACCGGTTTTCCCGGTAATCCGTATTTGTA (site TCTTCCCCTTA)”, for which the “recombinant UMI read abundance (log10)” value turned out to be 0.

Consider “TCTTCCCCATGGACCGGTTTTCCCGGTAATCCGTATTTGTA (site TGTTCCCCTTA)”, for which the “recombinant UMI read abundance (log10)” value was found to be 0.00596.

On to “TCTTCCCCATGGACCGGTTTTCCCGGTAATCCGTATTTGTA (site TTTTCCCCTTA)”, for which the “recombinant UMI read abundance (log10)” value stood at 0.00951.

For the sequence “TCTTGCCCATGGACCGGTTTTCCCGGTAATCCGTATTTGAT (site ACTTGCCCTAT)”, the “recombinant UMI read abundance (log10)” value was 0.00765.

With “TCTTGCCCATGGACCGGTTTTCCCGGTAATCCGTATTTGAT (site CCTTGCCCTAT)”, the “recombinant UMI read abundance (log10)” value amounted to 0.0026.

With “TCTTGCCCATGGACCGGTTTTCCCGGTAATCCGTATTTGAT (site GCTTGCCCTAT)”, the “recombinant UMI read abundance (log10)” value worked out at 0.00287.

As to “TCTTGCCCATGGACCGGTTTTCCCGGTAATCCGTATTTGAT (site TCTTGCCCTAT)”, the “recombinant UMI read abundance (log10)” value was 0.0104.

On to “TCTTTAGCATGGACCGGTTTTCCCGGTAATCCGTATTTGCA (site TCTTTAGCTTG)”, for which the “recombinant UMI read abundance (log10)” value came to 0.

As to “TGAAAGACATGGACCGGTTTTCCCGGTAATCCGTATTTGTA (site TGAAAGACTTA)”, the “recombinant UMI read abundance (log10)” value came out at 2.37.

Turning to “TGAACACCATGGACCGGTTTTCCCGGTAATCCGTATTTGCA (site TGAACACCTTG)”, the “recombinant UMI read abundance (log10)” value was found to be 0.302.

In the case of “TGAACATCATGGACCGGTTTTCCCGGTAATCCGTATTTGGC (site TGAACATCTGC)”, the “recombinant UMI read abundance (log10)” value was found to be 1.37.

“TGAACGACATGGACCGGTTTTCCCGGTAATCCGTATTTGGA (site TGAACGACTTC)”: the “recombinant UMI read abundance (log10)” value turned out to be 0.221.

Regarding “TGAAGAGCATGGACCGGTTTTCCCGGTAATCCGTATTTGCC (site TGAAGAGCTGG)”, the “recombinant UMI read abundance (log10)” value is 1.62.

Regarding “TGAAGCACATGGACCGGTTTTCCCGGTAATCCGTATTTGCG (site TGAAGCACTCG)”, the “recombinant UMI read abundance (log10)” value turned out to be 1.18.

Turning to “TGAATCACATGGACCGGTTTTCCCGGTAATCCGTATTTGAA (site CACGCGCCTGA)”, the “recombinant UMI read abundance (log10)” value is 0.00781.

Turning to “TGACATTCATGGACCGGTTTTCCCGGTAATCCGTATTTGCC (site TGACATTCTGG)”, the “recombinant UMI read abundance (log10)” value was 2.22.

“TGACCCGCATGGACCGGTTTTCCCGGTAATCCGTATTTGAC (site CAGATACCTCC)”: the “recombinant UMI read abundance (log10)” value came out at 0.00655.

Regarding “TGACGAACATGGACCGGTTTTCCCGGTAATCCGTATTTGGT (site TGACGAACTAC)”, the “recombinant UMI read abundance (log10)” value was found to be 1.16.

“TGACGCTCATGGACCGGTTTTCCCGGTAATCCGTATTTGCG (site TGACGCTCTCG)”: the “recombinant UMI read abundance (log10)” value was 1.33.

For the sequence “TGACTGCCATGGACCGGTTTTCCCGGTAATCCGTATTTGAA (site TGACTGCCTTT)”, the “recombinant UMI read abundance (log10)” value amounted to 0.0135.

Regarding “TGACTGGCATGGACCGGTTTTCCCGGTAATCCGTATTTGTA (site TGACTGGCTTA)”, the “recombinant UMI read abundance (log10)” value turned out to be 1.34.

Take “TGACTGTCATGGACCGGTTTTCCCGGTAATCCGTATTTGAT (site TGACTGTCTAT)”: the “recombinant UMI read abundance (log10)” value is 0.245.

Consider “TGACTTTCATGGACCGGTTTTCCCGGTAATCCGTATTTGAG (site TGACTTTCTCT)”, for which the “recombinant UMI read abundance (log10)” value was 0.

“TGAGCGTCATGGACCGGTTTTCCCGGTAATCCGTATTTGAC (site TGAGCGTCTGT)”: the “recombinant UMI read abundance (log10)” value is 1.7.

For the sequence “TGAGCTACATGGACCGGTTTTCCCGGTAATCCGTATTTGTC (site GCGAACTCTCC)”, the “recombinant UMI read abundance (log10)” value amounted to 0.

As for “TGAGGACCATGGACCGGTTTTCCCGGTAATCCGTATTTGGG (site AGAGGACCTCC)”, the “recombinant UMI read abundance (log10)” value is 0.0068.

With “TGAGGACCATGGACCGGTTTTCCCGGTAATCCGTATTTGGG (site CGAGGACCTCC)”, the “recombinant UMI read abundance (log10)” value came to 0.00688.

“TGAGGACCATGGACCGGTTTTCCCGGTAATCCGTATTTGGG (site GGAGGACCTCC)”: the “recombinant UMI read abundance (log10)” value is 0.0165.

As to “TGAGGACCATGGACCGGTTTTCCCGGTAATCCGTATTTGGG (site TGAGGACCTCC)”, the “recombinant UMI read abundance (log10)” value is 0.0291.

For the sequence “TGAGGACCATGGACCGGTTTTCCCGGTAATCCGTATTTGGT (site TGAGGACCTAC)”, the “recombinant UMI read abundance (log10)” value came out at 0.00901.

In the case of “TGAGGAGCATGGACCGGTTTTCCCGGTAATCCGTATTTGGT (site TGAGGAGCTAC)”, the “recombinant UMI read abundance (log10)” value stood at 1.12.

Regarding “TGAGGCTCATGGACCGGTTTTCCCGGTAATCCGTATTTGGT (site TGAGGCTCTAC)”, the “recombinant UMI read abundance (log10)” value was 1.76.

As to “TGAGTTTCATGGACCGGTTTTCCCGGTAATCCGTATTTGCT (site TGAGTTTCTAG)”, the “recombinant UMI read abundance (log10)” value was determined as 1.54.

Turning to “TGATACTCATGGACCGGTTTTCCCGGTAATCCGTATTTGCA (site TAATACTCTTG)”, the “recombinant UMI read abundance (log10)” value came to 2.38.

In the case of “TGATACTCATGGACCGGTTTTCCCGGTAATCCGTATTTGCA (site TCATACTCTTG)”, the “recombinant UMI read abundance (log10)” value was determined as 1.29.

As for “TGATACTCATGGACCGGTTTTCCCGGTAATCCGTATTTGCA (site TGATACTCTTG)”, the “recombinant UMI read abundance (log10)” value turned out to be 2.51.

In the case of “TGATACTCATGGACCGGTTTTCCCGGTAATCCGTATTTGCA (site TTATACTCTTG)”, the “recombinant UMI read abundance (log10)” value worked out at 1.96.

Take “TGATCATCATGGACCGGTTTTCCCGGTAATCCGTATTTGCG (site CGATCATCTAG)”: the “recombinant UMI read abundance (log10)” value stood at 0.

On to “TGATCATCATGGACCGGTTTTCCCGGTAATCCGTATTTGCG (site TGATCATCTCG)”, for which the “recombinant UMI read abundance (log10)” value is 1.27.

As to “TGATCGACATGGACCGGTTTTCCCGGTAATCCGTATTTGTT (site AGATCGACTAA)”, the “recombinant UMI read abundance (log10)” value amounted to 0.0146.

For “TGATCGACATGGACCGGTTTTCCCGGTAATCCGTATTTGTT (site CGATCGACTAA)”, the “recombinant UMI read abundance (log10)” value turned out to be 0.0214.

For the sequence “TGATCGACATGGACCGGTTTTCCCGGTAATCCGTATTTGTT (site GGATCGACTAA)”, the “recombinant UMI read abundance (log10)” value was determined as 0.0286.

Take “TGATCGACATGGACCGGTTTTCCCGGTAATCCGTATTTGTT (site TGATCGACTAA)”: the “recombinant UMI read abundance (log10)” value was 0.0254.

“TGATTATCATGGACCGGTTTTCCCGGTAATCCGTATTTGAA (site TGATTATCTTT)”: the “recombinant UMI read abundance (log10)” value was 1.32.

For the sequence “TGCACAGCATGGACCGGTTTTCCCGGTAATCCGTATTTGGC (site TGCACAGCTGC)”, the “recombinant UMI read abundance (log10)” value is 1.05.

Take “TGCATATCATGGACCGGTTTTCCCGGTAATCCGTATTTGAC (site TGCATATCTGT)”: the “recombinant UMI read abundance (log10)” value was determined as 1.25.

With “TGCATCCCATGGACCGGTTTTCCCGGTAATCCGTATTTGAC (site TGCATCCCTGT)”, the “recombinant UMI read abundance (log10)” value came out at 0.448.

With “TGCATGCCATGGACCGGTTTTCCCGGTAATCCGTATTTGGT (site TGCATGCCTAC)”, the “recombinant UMI read abundance (log10)” value was determined as 0.0134.

For “TGCCAATCATGGACCGGTTTTCCCGGTAATCCGTATTTGTG (site TGCCAATCTCA)”, the “recombinant UMI read abundance (log10)” value worked out at 0.0694.

With “TGCCACACATGGACCGGTTTTCCCGGTAATCCGTATTTGAG (site TGCCACACTCT)”, the “recombinant UMI read abundance (log10)” value came to 0.305.
